Measurements from patent US20090035784A1 (priority 2004, published 2009).
“Also recorded” adds a separate entry of the source. Read-outs that look alike come from different tables or passages of the source.

Legend:
Assay type in all cases: cell-based
[1] = target: T1, NPC1L1 (Homo sapiens, UniProt Q9UHC9, T1073A)
T1 construct: expressed in transfected cells; host or cells: Huh7-derived cells; the L1 3+ line (NPC1L1-overexpressing clone 3) is proposed for screening
T1 sequence (Q9UHC9 22-1359 T1073A): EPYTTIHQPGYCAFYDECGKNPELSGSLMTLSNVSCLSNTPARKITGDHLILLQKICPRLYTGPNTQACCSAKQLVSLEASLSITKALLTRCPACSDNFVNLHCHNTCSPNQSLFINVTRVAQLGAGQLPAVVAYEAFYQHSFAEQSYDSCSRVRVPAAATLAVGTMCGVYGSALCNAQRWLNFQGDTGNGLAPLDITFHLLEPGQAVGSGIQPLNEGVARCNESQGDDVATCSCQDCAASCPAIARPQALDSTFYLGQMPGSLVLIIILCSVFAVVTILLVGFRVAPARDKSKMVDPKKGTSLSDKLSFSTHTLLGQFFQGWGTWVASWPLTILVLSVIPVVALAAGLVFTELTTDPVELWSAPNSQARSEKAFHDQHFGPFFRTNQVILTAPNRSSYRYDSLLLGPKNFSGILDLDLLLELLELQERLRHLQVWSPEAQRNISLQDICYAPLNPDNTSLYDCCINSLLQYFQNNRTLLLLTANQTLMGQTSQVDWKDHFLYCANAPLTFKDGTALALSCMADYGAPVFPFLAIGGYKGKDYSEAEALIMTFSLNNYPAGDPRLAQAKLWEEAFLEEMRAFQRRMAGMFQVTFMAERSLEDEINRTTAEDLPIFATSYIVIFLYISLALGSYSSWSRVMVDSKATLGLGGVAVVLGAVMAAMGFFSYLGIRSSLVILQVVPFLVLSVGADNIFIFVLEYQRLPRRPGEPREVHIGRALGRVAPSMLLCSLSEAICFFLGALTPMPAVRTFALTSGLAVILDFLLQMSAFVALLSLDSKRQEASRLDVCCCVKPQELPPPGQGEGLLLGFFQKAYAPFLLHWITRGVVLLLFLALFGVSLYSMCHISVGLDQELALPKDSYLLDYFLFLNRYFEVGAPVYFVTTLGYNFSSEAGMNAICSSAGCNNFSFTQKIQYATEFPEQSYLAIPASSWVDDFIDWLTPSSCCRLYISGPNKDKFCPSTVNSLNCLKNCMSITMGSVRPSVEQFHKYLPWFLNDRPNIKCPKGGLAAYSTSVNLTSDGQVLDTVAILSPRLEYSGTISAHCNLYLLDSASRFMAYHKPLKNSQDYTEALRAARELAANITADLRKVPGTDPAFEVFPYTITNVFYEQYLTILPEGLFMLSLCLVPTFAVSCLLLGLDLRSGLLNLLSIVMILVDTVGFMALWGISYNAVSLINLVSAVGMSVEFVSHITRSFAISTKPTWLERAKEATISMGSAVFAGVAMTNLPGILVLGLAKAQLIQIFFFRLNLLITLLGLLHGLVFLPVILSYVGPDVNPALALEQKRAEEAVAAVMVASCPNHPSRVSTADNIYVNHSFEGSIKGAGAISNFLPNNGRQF

[2] = target: T1, NPC1L1; remark: listed apart in the source
[3] = target: T2, NPC1 (Homo sapiens, UniProt O15118); assay: Lysosomal cholesterol storage in normal human fibroblasts treated with inhibitor; settings: normal human fibroblasts incubated overnight, fluorescent cholesterol probe, FIG. 6 and 7
T2 construct: endogenous in cells; host or cells: normal human fibroblasts
T2 sequence (O15118 23-1278): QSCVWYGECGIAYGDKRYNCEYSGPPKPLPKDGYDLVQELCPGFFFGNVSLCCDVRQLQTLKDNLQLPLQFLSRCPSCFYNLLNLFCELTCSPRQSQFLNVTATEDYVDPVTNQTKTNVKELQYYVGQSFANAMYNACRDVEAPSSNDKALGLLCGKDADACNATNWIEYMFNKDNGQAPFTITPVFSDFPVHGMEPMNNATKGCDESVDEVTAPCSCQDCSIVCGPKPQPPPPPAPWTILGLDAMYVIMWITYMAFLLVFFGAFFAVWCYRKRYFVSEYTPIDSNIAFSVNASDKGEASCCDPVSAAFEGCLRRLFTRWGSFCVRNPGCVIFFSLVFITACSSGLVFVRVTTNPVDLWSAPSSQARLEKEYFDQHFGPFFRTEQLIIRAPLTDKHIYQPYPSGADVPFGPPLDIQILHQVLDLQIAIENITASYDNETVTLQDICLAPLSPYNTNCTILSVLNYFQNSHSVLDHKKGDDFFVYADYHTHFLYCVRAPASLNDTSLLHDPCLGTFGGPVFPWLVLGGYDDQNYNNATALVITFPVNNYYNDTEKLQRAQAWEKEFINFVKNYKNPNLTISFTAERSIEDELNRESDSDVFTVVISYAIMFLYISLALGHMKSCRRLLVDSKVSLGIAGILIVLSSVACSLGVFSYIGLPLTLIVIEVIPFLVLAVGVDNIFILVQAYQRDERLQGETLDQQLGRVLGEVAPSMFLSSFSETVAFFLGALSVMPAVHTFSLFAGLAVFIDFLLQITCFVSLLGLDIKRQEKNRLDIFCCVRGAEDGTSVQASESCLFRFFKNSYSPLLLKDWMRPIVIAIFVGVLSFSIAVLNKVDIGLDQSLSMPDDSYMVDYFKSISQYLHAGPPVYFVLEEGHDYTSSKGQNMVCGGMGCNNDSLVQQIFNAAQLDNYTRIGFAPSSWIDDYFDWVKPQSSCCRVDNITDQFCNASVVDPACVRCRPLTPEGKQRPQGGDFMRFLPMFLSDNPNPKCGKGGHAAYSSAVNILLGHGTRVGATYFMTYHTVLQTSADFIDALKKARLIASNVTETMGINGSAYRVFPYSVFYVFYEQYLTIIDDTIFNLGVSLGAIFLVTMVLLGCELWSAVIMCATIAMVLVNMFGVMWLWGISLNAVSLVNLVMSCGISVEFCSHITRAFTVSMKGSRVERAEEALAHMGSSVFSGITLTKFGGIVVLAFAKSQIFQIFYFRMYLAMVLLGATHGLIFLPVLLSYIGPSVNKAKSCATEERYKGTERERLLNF

c1ccc2c(CN3CCNCC3)cccc2c1 [1-(1-naphthylmethyl)piperazine]
identification as inhibitor of NPC1L1 [1]: NPC1L1 inhibitors have been identified

CC(=O)C1=C(Nc2ccccc2C)CCC1=O [2-acetyl-3-[(2-methylphenyl)amino]-2-cyclopenten-1-one]
identification as inhibitor of NPC1L1 [1]: NPC1L1 inhibitors have been identified
signal of NPC1L1 promoter upregulation (inhibition of the NPC1L1 protein) [2]: positive signal

CC(Nc1ccccc1O)=C1C(=O)CSC1=O [3 {1-[(2-hydroxyphenyl)amino]ethylidene}-2,4(3H, 5H)-thiophenedione]
identification as inhibitor of NPC1L1 [1]: NPC1L1 inhibitors have been identified
signal of NPC1L1 promoter upregulation (inhibition of the NPC1L1 protein) [2]: positive signal

COc1ccccc1NC1=C(C)C(=O)CC1 [3-[(2-methoxyphenyl)amino]-2-methyl-2-cyclopenten-1-one]
identification as inhibitor of NPC1L1 [1]: NPC1L1 inhibitors have been identified

COc1ccc(NC2=C(C)C(=O)CC2)cc1 [3-[(4-methoxyphenyl)amino]-2-methyl-2-cyclopenten-1-one]
identification as inhibitor of NPC1L1 [1]: NPC1L1 inhibitors have been identified

CC(Nc1ccccc1C)=C1C(=O)CSC1=O [3{1-[(2-methylphenyl)amino]ethylidene}-2,4(3H, 5H)-thiophenedione]
identification as inhibitor of NPC1L1 [1]: NPC1L1 inhibitors have been identified

Cl.N#CC1(c2ccccc2)CCNCC1 [#1, 4-Phenyl-4-piperidinecarbonitrile Hydrochloride]
identification as inhibitor of NPC1L1 ([1]; Hydrochloride): NPC1L1 inhibitors have been identified; also recorded: identified as an inhibitor of NPC1L1
NPC1 inhibition seen as lysosomal cholesterol build-up ([3]; hydrochloride): did not demonstrate any NPC1 inhibition
NPC1 inhibition seen as lysosomal cholesterol build-up ([3]; listed as 4-cyano-4-phenylpiperidine, Hydrochloride): weaker NPC1 inhibitor
signal of NPC1L1 promoter upregulation (inhibition of the NPC1L1 protein) [2]: positive signal

CC1CCNCC1 [#2, 4-methylpiperidine]
NPC1 inhibition seen as lysosomal cholesterol build-up [3]: weaker NPC1 inhibitor

CCCC(=O)C1(c2ccccc2)CCNCC1.Cl [#5, 4-butyryl-4-phenylpiperidine hydrochloride]
NPC1 inhibition seen as lysosomal cholesterol build-up ([3]; hydrochloride): distinguishable lysosomes filled with cholesterol
NPC1 inhibition seen as lysosomal cholesterol build-up ([3]; listed as 4-butyryl-4-phenylpiperidine, hydrochloride): NPC1 inhibitor

CCCCN1CCCCC1C(=O)Nc1c(C)cccc1C (stereo not shown) [#7, 1-Butyl-N(2,6-diemethylphenyl)2 piperidine carboxamide]
identification as inhibitor of NPC1L1 [1]: NPC1L1 inhibitors have been identified
signal of NPC1L1 promoter upregulation (inhibition of the NPC1L1 protein) [2]: positive signal

O=C1[C@H](CC[C@H](O)c2ccc(F)cc2)[C@@H](c2ccc(O)cc2)N1c1ccc(F)cc1 [Ezetamibe, reference compound]
signal of NPC1L1 promoter upregulation (inhibition of the NPC1L1 protein) [2]: did not inhibit NPC1L1

CC(=O)c1ccc(NC(=O)c2cccs2)cc1 [N-(4-acetylphenyl)-2-thiophenecarboxamide]
identification as inhibitor of NPC1L1 [1]: NPC1L1 inhibitors have been identified
